The supplement of paper PMC10307832

Experiments:
Assay in all cases: relative viability (nuclei count vs DMSO), 5 days (fraction); higher = more cells survive
[1] = test system: H3255
Method in brief: (§1)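 After 5 days of treatment, lung cancer cells in 1536-well plates were fixed and stained in a single step (final 0.05% Triton X-100, 1% formaldehyde, 1 ug/ml Hoechst) and their nuclei counted on 4× images. Treatment had been applied by pin tool the day after seeding as one drug alone or as a fixed anchor-drug dose with five library-drug doses (not always all listed) in √10 steps. Relative viability is the nuclei count of treated wells divided by that of vehicle wells, and values are medians of duplicate plates.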

[2] = test system: PC-14
Method in brief: as §1

[3] = test system: NCI-H2023
Method in brief: as §1

[4] = test system: SW 1573
Method in brief: as §1

[5] = test system: LXF-289
Method in brief: as §1

[6] = test system: NCI-H322M
Method in brief: as §1

[7] = test system: NCI-H727
Method in brief: as §1

[8] = test system: NCI-H2126
Method in brief: as §1

[9] = test system: SK-LU-1
Method in brief: as §1

[10] = test system: NCI-H2009
Method in brief: as §1

[11] = test system: EMC-BAC-2
Method in brief: as §1

[12] = test system: NCI-H2085
Method in brief: as §1

[13] = test system: NCI-H1993
Method in brief: as §1

[14] = test system: NCI-H2342
Method in brief: as §1

[15] = test system: NCI-H1563
Method in brief: as §1

[16] = test system: NCI-H2347
Method in brief: as §1

[17] = test system: EPLC-272H
Method in brief: as §1

[18] = test system: NCI-H1650
Method in brief: as §1

[19] = test system: NCI-H1915
Method in brief: as §1

[20] = test system: LCLC-97TM1
Method in brief: as §1

[21] = test system: NCI-H647
Method in brief: as §1

[22] = test system: NCI-H661
Method in brief: as §1

[23] = test system: HOP-62
Method in brief: as §1

O=C(O)c1ccc(-c2c[nH]c3ncc(-c4ccccc4)cc23)cc1C1CCCC1 + N=C(N)NC(=N)NCCc1ccccc1 [Phenformin] (partner 250 µM)
relative viability ([1]; first compound 0.04 µM): 0.343
relative viability ([1]; first compound 0.1265 µM): 0.354
relative viability ([1]; first compound 0.4 µM): 0.39
relative viability ([1]; first compound 1.265 µM): 0.372
relative viability ([2]; first compound 0.04 µM): 0.588
relative viability ([2]; first compound 0.1265 µM): 0.678
relative viability ([2]; first compound 0.4 µM): 0.548
relative viability ([2]; first compound 1.265 µM): 0.604
relative viability ([3]; first compound 0.04 µM): 0.412
relative viability ([3]; first compound 0.1265 µM): 0.491
relative viability ([3]; first compound 0.4 µM): 0.44
relative viability ([3]; first compound 1.265 µM): 0.278
relative viability ([4]; first compound 0.04 µM): 0.38
relative viability ([4]; first compound 0.1265 µM): 0.35
relative viability ([4]; first compound 0.4 µM): 0.276
relative viability ([4]; first compound 1.265 µM): 0.299
relative viability ([5]; first compound 0.04 µM): 0.543
relative viability ([5]; first compound 0.1265 µM): 0.507
relative viability ([5]; first compound 0.4 µM): 0.485
relative viability ([5]; first compound 1.265 µM): 0.243
relative viability ([6]; first compound 0.04 µM): 0.772
relative viability ([6]; first compound 0.1265 µM): 0.832
relative viability ([6]; first compound 0.4 µM): 0.782
relative viability ([6]; first compound 1.265 µM): 0.63
relative viability ([7]; first compound 0.04 µM): 0.464
relative viability ([7]; first compound 0.1265 µM): 0.684
relative viability ([7]; first compound 0.4 µM): 0.582
relative viability ([7]; first compound 1.265 µM): 0.509
relative viability ([8]; first compound 0.04 µM): 0.571
relative viability ([8]; first compound 0.1265 µM): 0.581
relative viability ([8]; first compound 0.4 µM): 0.505
relative viability ([8]; first compound 1.265 µM): 0.441
relative viability ([9]; first compound 0.04 µM): 0.537
relative viability ([9]; first compound 0.1265 µM): 0.585
relative viability ([9]; first compound 0.4 µM): 0.459
relative viability ([9]; first compound 1.265 µM): 0.363
relative viability ([10]; first compound 0.04 µM): 0.519
relative viability ([10]; first compound 0.1265 µM): 0.533
relative viability ([10]; first compound 0.4 µM): 0.512
relative viability ([10]; first compound 1.265 µM): 0.393
relative viability ([11]; first compound 0.04 µM): 0.513
relative viability ([11]; first compound 0.1265 µM): 0.554
relative viability ([11]; first compound 0.4 µM): 0.527
relative viability ([11]; first compound 1.265 µM): 0.424
relative viability ([12]; first compound 0.04 µM): 0.84
relative viability ([12]; first compound 0.1265 µM): 0.897
relative viability ([12]; first compound 0.4 µM): 0.688
relative viability ([12]; first compound 1.265 µM): 0.595
relative viability ([13]; first compound 0.04 µM): 0.574
relative viability ([13]; first compound 0.1265 µM): 0.475
relative viability ([13]; first compound 0.4 µM): 0.477
relative viability ([13]; first compound 1.265 µM): 0.513
relative viability ([14]; first compound 0.04 µM): 0.512
relative viability ([14]; first compound 0.1265 µM): 0.693
relative viability ([14]; first compound 0.4 µM): 0.623
relative viability ([14]; first compound 1.265 µM): 0.491
relative viability ([15]; first compound 0.04 µM): 0.679
relative viability ([15]; first compound 0.1265 µM): 0.679
relative viability ([15]; first compound 0.4 µM): 0.634
relative viability ([15]; first compound 1.265 µM): 0.654
relative viability ([16]; first compound 0.04 µM): 0.396
relative viability ([16]; first compound 0.1265 µM): 0.475
relative viability ([16]; first compound 0.4 µM): 0.484
relative viability ([16]; first compound 1.265 µM): 0.405
relative viability ([17]; first compound 0.04 µM): 0.357
relative viability ([17]; first compound 0.1265 µM): 0.295
relative viability ([17]; first compound 0.4 µM): 0.356
relative viability ([17]; first compound 1.265 µM): 0.328
relative viability ([18]; first compound 0.04 µM): 0.469
relative viability ([18]; first compound 0.1265 µM): 0.472
relative viability ([18]; first compound 0.4 µM): 0.338
relative viability ([18]; first compound 1.265 µM): 0.2
relative viability ([19]; first compound 0.04 µM): 0.376
relative viability ([19]; first compound 0.1265 µM): 0.362
relative viability ([19]; first compound 0.4 µM): 0.34
relative viability ([19]; first compound 1.265 µM): 0.295
relative viability ([20]; first compound 0.04 µM): 0.475
relative viability ([20]; first compound 0.1265 µM): 0.435
relative viability ([20]; first compound 0.4 µM): 0.5
relative viability ([20]; first compound 1.265 µM): 0.399
relative viability ([21]; first compound 0.04 µM): 0.611
relative viability ([21]; first compound 0.1265 µM): 0.598
relative viability ([21]; first compound 0.4 µM): 0.478
relative viability ([21]; first compound 1.265 µM): 0.38
relative viability ([22]; first compound 0.04 µM): 0.292
relative viability ([22]; first compound 0.4 µM): 0.285
relative viability ([22]; first compound 1.265 µM): 0.278
relative viability ([23]; first compound 0.04 µM): 0.699
relative viability ([23]; first compound 0.1265 µM): 0.669
relative viability ([23]; first compound 0.4 µM): 0.611
relative viability ([23]; first compound 1.265 µM): 0.595
